{"source": "ChEMBL document CHEMBL1154382", "about": "“Preliminary SAR analysis of novel antiproliferative N(6),5'-bis-ureidoadenosine derivatives” (2009)", "format_in_all_cases": "functional", "key": {"PC-3": {"tested_on": "PC-3", "experiment": "Antiproliferative activity against human PC3 cells"}, "HCT-15": {"tested_on": "HCT-15", "experiment": "Antiproliferative activity against human HCT15 cells"}, "SK-MEL-5": {"tested_on": "SK-MEL-5", "experiment": "Antiproliferative activity against human SK-MEL-5 cells"}, "BT-549": {"tested_on": "BT-549", "experiment": "Antiproliferative activity against human BT549 cells"}, "OVCAR-4": {"tested_on": "OVCAR-4", "experiment": "Antiproliferative activity against human OVCAR4 cells"}, "COLO 205": {"tested_on": "COLO 205", "experiment": "Antiproliferative activity against human COLO205 cells"}, "UO-31": {"tested_on": "UO-31", "experiment": "Antiproliferative activity against human UO31 cells"}, "SR": {"tested_on": "SR", "experiment": "Antiproliferative activity against human SR cells"}, "UACC-62": {"tested_on": "UACC-62", "experiment": "Antiproliferative activity against human UACC62 cells"}, "A549": {"tested_on": "A549", "experiment": "Antiproliferative activity against human A549 cells"}, "NCI-H23": {"tested_on": "NCI-H23", "experiment": "Antiproliferative activity against human NCI-H23 cells"}, "[1]": {"experiment": "Antiproliferative activity against human Hs 578T cells"}, "MDA-MB-435": {"tested_on": "MDA-MB-435", "experiment": "Antiproliferative activity against human MDA-MB-435 cells"}, "UACC-257": {"tested_on": "UACC-257", "experiment": "Antiproliferative activity against human UACC257 cells"}, "OVCAR-8": {"tested_on": "OVCAR-8", "experiment": "Antiproliferative activity against human OVCAR8 cells"}, "SN12C": {"tested_on": "SN12C", "experiment": "Antiproliferative activity against human SN12C cells"}, "A498": {"tested_on": "A498", "experiment": "Antiproliferative activity against human A498 cells"}, "K562": {"tested_on": "K562", "experiment": "Antiproliferative activity against human K562 cells"}, "HOP-92": {"tested_on": "HOP-92", "experiment": "Antiproliferative activity against human HOP92 cells"}, "KM12": {"tested_on": "KM12", "experiment": "Antiproliferative activity against human KM12 cells"}, "SW-620": {"tested_on": "SW-620", "experiment": "Antiproliferative activity against human SW620 cells"}, "IGROV-1": {"tested_on": "IGROV-1", "experiment": "Antiproliferative activity against human IGROV1 cells"}, "SF-539": {"tested_on": "SF-539", "experiment": "Antiproliferative activity against human SF539 cells"}, "DU-145": {"tested_on": "DU-145", "experiment": "Antiproliferative activity against human DU145 cells"}, "CCRF-CEM": {"tested_on": "CCRF-CEM", "experiment": "Antiproliferative activity against human CCRF-CEM cells"}, "TK-10": {"tested_on": "TK-10", "experiment": "Antiproliferative activity against human TK10 cells"}, "HCT-116": {"tested_on": "HCT-116", "experiment": "Antiproliferative activity against human HCT116 cells"}, "T47D": {"tested_on": "T47D", "experiment": "Antiproliferative activity against human T47D cells"}, "HT-29": {"tested_on": "HT-29", "experiment": "Antiproliferative activity against human HT-29 cells"}, "HCC 2998": {"tested_on": "HCC 2998", "experiment": "Antiproliferative activity against human HCC2998 cells"}, "NCI-H226": {"tested_on": "NCI-H226", "experiment": "Antiproliferative activity against human NCI-H226 cells"}, "ACHN": {"tested_on": "ACHN", "experiment": "Antiproliferative activity against human ACHN cells"}, "MOLT-4": {"tested_on": "MOLT-4", "experiment": "Antiproliferative activity against human MOLT4 cells"}, "SK-MEL-2": {"tested_on": "SK-MEL-2", "experiment": "Antiproliferative activity against human SK-MEL-2 cells"}, "[2]": {"experiment": "Antiproliferative activity against human […] cells"}, "SNB-19": {"tested_on": "SNB-19", "experiment": "Antiproliferative activity against human SNB19 cells"}, "RXF 393": {"tested_on": "RXF 393", "experiment": "Antiproliferative activity against human RXF393 cells"}, "SF-268": {"tested_on": "SF-268", "experiment": "Antiproliferative activity against human SF268 cells"}, "SF-295": {"tested_on": "SF-295", "experiment": "Antiproliferative activity against human SF295 cells"}, "OVCAR-5": {"tested_on": "OVCAR-5", "experiment": "Antiproliferative activity against human OVCAR5 cells"}, "HL-60(TB)": {"tested_on": "HL-60(TB)", "experiment": "Antiproliferative activity against human HL-60(TB) cells"}, "SNB-75": {"tested_on": "SNB-75", "experiment": "Antiproliferative activity against human SNB75 cells"}, "SK-MEL-28": {"tested_on": "SK-MEL-28", "experiment": "Antiproliferative activity against human SK-MEL-28 cells"}, "U-251": {"tested_on": "U-251", "experiment": "Antiproliferative activity against human U251 cells"}, "MCF7": {"tested_on": "MCF7", "experiment": "Antiproliferative activity against human MCF7 cells"}, "NCI-H522": {"tested_on": "NCI-H522", "experiment": "Antiproliferative activity against human NCI-H522 cells"}, "Malme-3M": {"tested_on": "Malme-3M", "experiment": "Antiproliferative activity against human MALME-3M cells"}, "HOP-62": {"tested_on": "HOP-62", "experiment": "Antiproliferative activity against human HOP62 cells"}, "SK-OV-3": {"tested_on": "SK-OV-3", "experiment": "Antiproliferative activity against human SKOV3 cells"}, "OVCAR-3": {"tested_on": "OVCAR-3", "experiment": "Antiproliferative activity against human OVCAR-3 cells"}, "EKVX": {"tested_on": "EKVX", "experiment": "Antiproliferative activity against human EKVX cells"}, "CAKI-1": {"tested_on": "CAKI-1", "experiment": "Antiproliferative activity against human Caki1 cells"}, "NCI-H322M": {"tested_on": "NCI-H322M", "experiment": "Antiproliferative activity against human NCI-H322M cells"}, "MDA-MB-231": {"tested_on": "MDA-MB-231", "experiment": "Antiproliferative activity against human MDA-MB-231 cells"}, "786-0": {"tested_on": "786-0", "experiment": "Antiproliferative activity against human 786-0 cells"}, "LOX IMVI": {"tested_on": "LOX IMVI", "experiment": "Antiproliferative activity against human LOXIMVI cells"}, "M14": {"tested_on": "M14", "experiment": "Antiproliferative activity against human M14 cells"}, "NCI-H460": {"tested_on": "NCI-H460", "experiment": "Antiproliferative activity against human NCI-H460 cells"}}, "data": [{"molecule": "CCOC(=O)C[C@H]1[C@@H](O[Si](C)(C)C(C)(C)C)[C@H](n2cnc3c(NC(=O)Nc4ccccc4)ncnc32)O[C@@H]1CNC(=O)NC", "values": [{"measurement": "GI50", "setting": "PC-3", "result": 2.25, "unit": "µM"}, {"measurement": "GI50", "setting": "HCT-15", "result": 8.5, "unit": "µM"}, {"measurement": "GI50", "setting": "SK-MEL-5", "result": 4.34, "unit": "µM"}, {"measurement": "GI50", "setting": "BT-549", "result": "> 100", "unit": "µM"}, {"measurement": "GI50", "setting": "OVCAR-4", "result": 12.3, "unit": "µM"}, {"measurement": "GI50", "setting": "COLO 205", "result": 3.84, "unit": "µM"}, {"measurement": "GI50", "setting": "UO-31", "result": 12.1, "unit": "µM"}, {"measurement": "GI50", "setting": "SR", "result": 2.23, "unit": "µM"}, {"measurement": "GI50", "setting": "UACC-62", "result": "> 100", "unit": "µM"}, {"measurement": "GI50", "setting": "A549", "result": 4.18, "unit": "µM"}, {"measurement": "GI50", "setting": "NCI-H23", "result": 33.3, "unit": "µM"}, {"measurement": "GI50", "setting": "[1]", "result": 3.6, "unit": "µM"}, {"measurement": "GI50", "setting": "MDA-MB-435", "result": 6.21, "unit": "µM"}, {"measurement": "GI50", "setting": "UACC-257", "result": 5.68, "unit": "µM"}, {"measurement": "GI50", "setting": "OVCAR-8", "result": 4.92, "unit": "µM"}, {"measurement": "GI50", "setting": "SN12C", "result": 9.1, "unit": "µM"}, {"measurement": "GI50", "setting": "A498", "result": 3.34, "unit": "µM"}, {"measurement": "GI50", "setting": "K562", "result": 3.59, "unit": "µM"}, {"measurement": "GI50", "setting": "HOP-92", "result": "< 0.01", "unit": "µM"}, {"measurement": "GI50", "setting": "KM12", "result": 3.95, "unit": "µM"}, {"measurement": "GI50", "setting": "SW-620", "result": 4.8, "unit": "µM"}, {"measurement": "GI50", "setting": "IGROV-1", "result": 3.85, "unit": "µM"}, {"measurement": "GI50", "setting": "SF-539", "result": 5.19, "unit": "µM"}, {"measurement": "GI50", "setting": "DU-145", "result": 4.97, "unit": "µM"}, {"measurement": "GI50", "setting": "CCRF-CEM", "result": 6.69, "unit": "µM"}, {"measurement": "GI50", "setting": "TK-10", "result": 12.4, "unit": "µM"}, {"measurement": "GI50", "setting": "HCT-116", "result": 3.2, "unit": "µM"}, {"measurement": "GI50", "setting": "T47D", "result": 2.55, "unit": "µM"}, {"measurement": "GI50", "setting": "HT-29", "result": 4.2, "unit": "µM"}, {"measurement": "GI50", "setting": "HCC 2998", "result": "> 100", "unit": "µM"}, {"measurement": "GI50", "setting": "NCI-H226", "result": "> 100", "unit": "µM"}, {"measurement": "GI50", "setting": "ACHN", "result": 8.55, "unit": "µM"}, {"measurement": "GI50", "setting": "MOLT-4", "result": 2.39, "unit": "µM"}, {"measurement": "GI50", "setting": "SK-MEL-2", "result": 5.42, "unit": "µM"}, {"measurement": "GI50", "setting": "[2]", "result": 1.09, "unit": "µM"}, {"measurement": "GI50", "setting": "SNB-19", "result": 29, "unit": "µM"}, {"measurement": "GI50", "setting": "RXF 393", "result": 2.01, "unit": "µM"}, {"measurement": "GI50", "setting": "SF-268", "result": 6.53, "unit": "µM"}, {"measurement": "GI50", "setting": "SF-295", "result": 5.73, "unit": "µM"}, {"measurement": "GI50", "setting": "OVCAR-5", "result": 31.1, "unit": "µM"}, {"measurement": "GI50", "setting": "HL-60(TB)", "result": 0.00301, "unit": "µM"}, {"measurement": "GI50", "setting": "SNB-75", "result": 4.56, "unit": "µM"}, {"measurement": "GI50", "setting": "SK-MEL-28", "result": 6.85, "unit": "µM"}, {"measurement": "GI50", "setting": "U-251", "result": 4.69, "unit": "µM"}, {"measurement": "GI50", "setting": "MCF7", "result": 3.42, "unit": "µM"}, {"measurement": "GI50", "setting": "NCI-H522", "result": 4.36, "unit": "µM"}, {"measurement": "GI50", "setting": "Malme-3M", "result": 10.3, "unit": "µM"}, {"measurement": "GI50", "setting": "HOP-62", "result": 8.96, "unit": "µM"}, {"measurement": "GI50", "setting": "SK-OV-3", "result": 21, "unit": "µM"}, {"measurement": "GI50", "setting": "OVCAR-3", "result": 4.59, "unit": "µM"}, {"measurement": "GI50", "setting": "EKVX", "result": 17.7, "unit": "µM"}, {"measurement": "GI50", "setting": "CAKI-1", "result": 29.7, "unit": "µM"}, {"measurement": "GI50", "setting": "NCI-H322M", "result": "> 100", "unit": "µM"}, {"measurement": "GI50", "setting": "MDA-MB-231", "result": 3.96, "unit": "µM"}, {"measurement": "GI50", "setting": "786-0", "result": 2, "unit": "µM"}, {"measurement": "GI50", "setting": "LOX IMVI", "result": 5.46, "unit": "µM"}, {"measurement": "GI50", "setting": "M14", "result": 2.51, "unit": "µM"}, {"measurement": "GI50", "setting": "NCI-H460", "result": 5.54, "unit": "µM"}]}]}
